Entries after “also recorded” stand apart in the source; their conditions may differ.
Columns and labels:
[1] = tested on: ischemic AKI; test: Unilateral ischemic kidney injury (ischemic AKI); assay type: in vivo, male mice; details: for BUN / kidney damage by H & E staining (dilated tubules, proteinaceous casts) / serum creatinine: diet-fed versus normal diet; for expression of the injury marker NGAL in proximal tubules: immunostaining
Source text: FIG. 3. DC12 treatment mitigates ischemic kidney injury. Normal diet or DC12-fed male mice were subjected to ischemic AKI. […] Tubular dilation (arrows), debris, or proteinaceous casts are indicated (*). […] E,F) DC12-fed mice had lower serum creatinine and BUN, which are markers of kidney dysfunction. *p<0.05.
FIGS. 7A-7F. […] Normal diet or DC8-fed male mice were subjected to ischemic AKI. […] Tubular dilation (arrows), debris, or proteinaceous casts are indicated (*). […] FIGS. 7E,7F) DC8-fed mice had lower serum creatinine and BUN, which are markers of kidney dysfunction. ****p<0.0001.
DC12 is renoprotective. […] To test this, mice that had been fed ±10% DC12 for 7 days were subjected to unilateral ischemic kidney injury. In this model, the uninjured contralateral kidney is removed on Day 6 post-injury and used as control tissue, and the injured kidneys are collected one day later for analysis. The diet was continued during the 6-day recovery period post-injury, as well as after removing the contralateral kidney.
(§1) The effect of DC8 in ischemic AKI was also tested.

[2] = tested on: lysine succinylation (Suc-Lys) PTMs; test: Western blotting of lysine succinylation in tissues of mice fed dicarboxylic acids; assay type: in vivo, wildtype C57Bl/6 mice; details: for lysine succinylation (Suc-Lys) PTMs in kidney / lysine succinylation (Suc-Lys) PTMs in liver: fed 10% w/w for 7 days
Source text: FIGS. 1A-1C. Feeding mice DCAs causes a dramatic shift in the post-translational modification (PTM) landscape. […] ND=normal diet. FIG. 1B) Mice were fed 10% DC12 for 0 to 7 days; some mice underwent a 7-day “washout” after 7 days on DC12.
FIG. 6. DC8 causes robust kidney specific succinylation. DC8, DC10 and DC12 were fed to wild-type mice at 10% w/w for 7 days.
(§2) We hypothesized that peroxisomes can chain-shorten DC12 as far as DC4-CoA, also known as succinyl-CoA. Such a mechanism would be predicted to 1) result in protein succinylation in the peroxisome, due to the known high chemical reactivity between lysine residues and succinyl-CoA; and 2) “feed” the mitochondrial TCA cycle with the products of DC12 chain-shortening, namely 2-carbon units (acetate) and succinate. We fed wildtype C57Bl/6 mice DC12 mixed into the diet and measured protein succinylation as a proxy for succinyl-CoA formation. […] The succinylation is seen to arise within 1 day and becomes maximal at 7 days (FIG. 1B). The effect is reversible when the diet is removed. DC12 degradation also produces acetyl-CoA. […] Like succinyl-CoA, glutaryl-CoA (DC5-CoA) is also highly reactive.
DC8 induces high-level, kidney-specific protein succinylation. […] Potential side effects caused by liver metabolization can be avoided, and the liver is not reducing the available agent.

[3] = tested on: unilateral ureteral obstruction (UUO); test: Unilateral ureteral obstruction (UUO) model of interstitial fibrosis; assay type: in vivo; details: DC8 fed versus control fed diet
Source text: FIG. 14. DC8 treatment was also protective against a chronic kidney disease model of interstitial fibrosis. As was evidenced in the control fed diet 14A and A′ when the kidney was subjected to unilateral ureteral obstruction (UUO) that there was a significant amount of trichrome positive fibrosis in the interstitium (blue).

[4] = Body weight, food intake, grip strength and body composition (EchoMRI) in DC12-fed mice; assay type: in vivo
Method: FIGS. 8A-8G. […] FIG. 8A, 8B) Mice were fed DC12 for 5 weeks. Body weight and food weights were measured 3 times per week. […] Forelimb peak force was measured with a grip strength meter and normalized to body weight.

[5] = tested on: cisplatin kidney injury; test: Nephrotoxic (cisplatin) model of AKI; assay type: in vivo, male 129 WT mice
Method: FIGS. 5A-5B. DC12 treatment mitigates cisplatin kidney injury. Normal diet or DC12-fed (7 days pre-treatment+3 days post-treatment) male 129 WT mice were injected i.p. with 18 mg/kg cisplatin and sacrificed at day 3. (FIG. 5A) Reduction of serum bicarbonate by cisplatin-AKI was mitigated in DC12 treated mice. (FIG. 5B) Renal tubular injury by cisplatin is mitigated in DC12 treated mice. Magnified images for dotted boxed areas are shown. Tubular dilation, debris, or proteinaceous casts are indicated(*) n=6-7, mean±SEM, t-test, *p<0.05, Scale bars: 50 um
We also conducted a nephrotoxic model of AKI (cisplatin).
as §1

[6] = tested on: lysine succinylation in liver peroxisomes; test: Lysine succinylation in liver peroxisomes and homogenates of WT versus Sirt5KO mice fed DC12; assay type: in vivo
Source text: FIGS. 2A-2C. […] FIG. 2A) Livers from N=3 mice fed DC12 for 7 days, separated by Histodenz gradient centrifugation to yield pure peroxisomes and blotted with anti-succinyllysine (SucLys). ND lanes=one control mouse of each genotype fed normal diet. Peroxisome fraction is positive for peroxisome marker PMP70 but negative for mitochondrial Tim23 except for WT sample #2 which had minor mitochondrial contamination. FIG. 2B) Densitometry from panel (FIG. 2A) showing total SucLys signal normalized to PMP70. FIG. 2C) Liver homogenates from normal diet (ND) and Sirt5KO mice (N=4) were subjected to quantitative site-level mass spectrometry for succinylated peptides. The Y-axis is Log 2 fold-change for each peptide relative to wild-type (WT) on ND. Each dot is an individual peptide.
An important question was whether Sirt5, a deacylase that can reverse succinylation and glutarylation, would offset and reverse the effects of feeding DCAs.

[7] = tested on: long-chain acyl-CoA dehydrogenase (LCAD) knockout mice; test: LCAD knockout mice, model of mitochondrial long-chain fatty acid oxidation disorders; assay type: in vivo
Source text: FIG. 11A-11E. DC12 and DC10 improve functioning in long-chain acyl-CoA dehydrogenase (LCAD) knockout mice, a mouse model of mitochondrial long-chain fatty acid oxidation disorders.

[8] = tested on: lysine succinylation PTMs in kidney; test: Quantitative mass spectrometry of contralateral and injured kidneys (AKI ± DC12); assay type: in vivo, mice
Source text: FIGS. 4A-4C. Effects of injury and DC12 on protein succinylation PTMs. N=4 mice were subjected to AKI±7 days of 10% DC12. Contralateral (non-injured kidneys) served as control. Quantitative mass spectrometry was used to profile lysine succinylation PTMs at the protein and site-level. […] FIG. 4C) Succinylation of individual lysine-containing peptides from four key peroxisomal proteins, normalized to control diet non-injured levels.
Portions of contralateral control kidney and injured kidney were used for quantitative mass spectrometry, to measure both total protein abundance and site-level changes in lysine succinylation.

[9] = Indirect calorimetry (CLAMS) in DC12-fed mice; assay type: in vivo
Source text: FIGS. 9A-9D. DC12 increases whole-body energy expenditure and respiratory exchange ratio. Indirect calorimetry indicated increased whole-body respiration as measured in the CLAMS apparatus over 72 hrs, for both oxygen consumed (FIG. 9A) and carbon dioxide produced (FIG. 9B). […] The calculated energy expenditure in the DC12 group was higher (FIG. 9D).

[10] = Treadmill run to exhaustion, blood lactate; assay type: in vivo, wildtype mice; details: DC12 diet for 7 days
Method: (§3) FIGS. 10A-10D. DC12 protects against lactic acidosis. Wildtype mice were maintained on DC12 diet for 7 days, then run on a treadmill to exhaustion. […] Then, mice fed DC12 were tested for protection against metformin overdose, which is clinically known to induce a lethal lactic acidosis. After a single 400 mg/kg dose of metformin, 9/11 mice on control diet died, while 0/12 mice on DC12 diet died (FIG. 10B).

[11] = tested on: metformin overdose; test: Metformin overdose (lactic acidosis); assay type: in vivo, mice
Method: as §3

[12] = tested on: protein acetylation; test: Protein acetylation with pan anti-acetyllysine antibody in DC12-fed mice; assay type: in vivo
Source text: as §2

[13] = tested on: lysine glutarylation (Glu-Lys); test: Western blotting of lysine glutarylation in mice fed DC11; assay type: in vivo; details: 10% w/w for 7 days

SMILES: O=C(O)CCCCCCC(=O)O [DC8, octanedioic acid]
- kidney function ([1]; after ischemic injury): dramatically improved
- BUN [1]: lower
- kidney damage by H & E staining (dilated tubules, proteinaceous casts) [1]: reduced kidney damage; also recorded: marked reduction in kidney damage
- serum creatinine [1]: lower
- expression of the injury marker NGAL in proximal tubules [1]: markedly reduced
- lysine succinylation (Suc-Lys) PTMs in kidney ([2]; western blotting): dramatic increase; also recorded: stronger protein succinylation
- lysine succinylation (Suc-Lys) PTMs in liver ([2]; western blotting): not the liver
- interstitial fibrosis (trichrome) [3]: dramatically decreased

SMILES: O=C(O)CCCCCCCCCCC(=O)O [DC12, dodecanedioic acid]
- fat mass ([4]; 5 weeks or 9 weeks, EchoMRI): reduces fat mass
- lean mass ([4]; 5 weeks or 9 weeks, EchoMRI): not altering lean mass
- liver fat (triacylglycerol, TAG) ([4]; at sacrifice): also reduced
- mass of the intra-abdominal fat pad (epididymal) ([4]; at sacrifice): significantly reduced
- body weight ([4]; fed DC12 for 5 weeks): reduced body weight
- food intake ([4]; fed DC12 for 5 weeks): without changing food intake
- muscle strength (forelimb peak force normalized to body weight) ([4]; grip strength meter): does not reduce muscle strength
- reduction of serum bicarbonate by cisplatin-AKI ([5]; 18 mg/kg cisplatin i.p., day 3): mitigated; also recorded: improved functionality
- renal tubular injury by cisplatin (histology) ([5]; 18 mg/kg cisplatin i.p., day 3): mitigated; also recorded: less structural damage
- protection against injury in cisplatin model ([5]; mouse, in vivo): protected against injury
- BUN [1]: lower; also recorded: significantly reduced
- kidney damage by H & E staining (dilated tubules, proteinaceous casts) [1]: reduced kidney damage; also recorded: reduced the number of dilated tubules and proteinaceous casts
- serum creatinine [1]: lower; also recorded: significantly reduced
- expression of the injury marker NGAL in proximal tubules [1]: markedly reduced; also recorded: less induction
- reversibility of succinylation ([2]; 7-day washout after 7 days on DC12): reversible
- time at which succinylation becomes maximal ([2]; 10% DC12 for 0 to 7 days): 7 days
- time for succinylation to arise ([2]; 10% DC12 for 0 to 7 days): ≤ 1 days
- succinylation in muscle, heart, and brain ([2]; DC12 mixed into the diet, western blotting): no change
- lysine succinylation (Suc-Lys) PTMs in kidney ([2]; western blotting): massive increase; also recorded: moderate increase; also recorded: massive upregulation
- lysine succinylation (Suc-Lys) PTMs in liver ([2]; western blotting): massive increase; also recorded: large increase; also recorded: massive upregulation; also recorded: strongest protein succinylation
- lysine succinylation in liver peroxisomes, WT versus Sirt5-/- ([6]; 10% DC12 for 7 days, anti-succinyllysine blot): equal lysine succinylation
- succinylated peptides, fold-change relative to WT on normal diet ([6]; liver, quantitative mass spectrometry): very high fold-changes in succinylation in both genotypes; also recorded: increases lysine succinylation dramatically
- fasting glucose ([7]; two weeks on 10% DC12 diet): improved
- forelimb grip strength ([7]; two weeks on 10% DC12 diet): improved
- spontaneous locomotion ([7]; two weeks on 10% DC12 diet): improved
- time spent resting ([7]; two weeks on 10% DC12 diet): less
- lysine succinylation in kidney ([8]; 7 days of 10% DC12, quantitative mass spectrometry): massively increased; also recorded: massive effects
- succinylation level of kidney peroxisomal proteins ([8]; compared to baseline (contralateral)): greatly increased
- protein expression in kidney ([8]; total protein abundance, quantitative mass spectrometry): very minimal if any effect
- whole-body respiration, carbon dioxide produced ([9]; CLAMS over 72 hrs): increased
- whole-body respiration, oxygen consumed ([9]; CLAMS over 72 hrs): increased
- respiratory exchange ratio (RER) ([9]; dark period): shift toward a higher RER
- calculated energy expenditure ([9]; mouse, in vivo): higher
- blood lactate at exhaustion [10]: significantly reduced
- blood glucose levels relative to control ([11]; 2 hr post-metformin injection): twice as high as control
- lactate levels, lower than control ([11]; 2 hr post-metformin injection): 50%
- mice that died ([11]; single 400 mg/kg dose of metformin): 0/12
- protein acetylation [12]: no changes were observed

SMILES: O=C(O)CCCCCCCCC(=O)O [DC10, decanedioic acid]
- lysine succinylation (Suc-Lys) PTMs in kidney ([2]; western blotting): large increase; also recorded: stronger protein succinylation
- lysine succinylation (Suc-Lys) PTMs in liver ([2]; western blotting): moderate upregulation
- blood lactate after acute exercise stress test on a treadmill ([7]; single dose): significantly lowered

SMILES: O=C(O)CCCCCCCCCC(=O)O [DC11, undecanedioic acid]
- lysine glutarylation (Glu-Lys) in liver and kidney [13]: massive increase; also recorded: high-level protein glutarylation

Reference: patent publication US20240423941A1, “MEDIUM CHAIN DICARBOXYLIC ACIDS FOR THE TREATMENT AND PREVENTION OF DISEASES AND CONDITIONS” (University of Pittsburgh - Of the Commonwealth System of …, priority 2021, published 2024)
